The results in this text go back to patent publication US9822103B2, “Inhibitors of lysine methyl transferase” (priority 2013, dated 2017).

Sequence of recombinant EZH2-641F complex (EZH2 Y641F/EED/SUZ12/RbAp48/AEBP2) (Q15910 whole entry Y641F): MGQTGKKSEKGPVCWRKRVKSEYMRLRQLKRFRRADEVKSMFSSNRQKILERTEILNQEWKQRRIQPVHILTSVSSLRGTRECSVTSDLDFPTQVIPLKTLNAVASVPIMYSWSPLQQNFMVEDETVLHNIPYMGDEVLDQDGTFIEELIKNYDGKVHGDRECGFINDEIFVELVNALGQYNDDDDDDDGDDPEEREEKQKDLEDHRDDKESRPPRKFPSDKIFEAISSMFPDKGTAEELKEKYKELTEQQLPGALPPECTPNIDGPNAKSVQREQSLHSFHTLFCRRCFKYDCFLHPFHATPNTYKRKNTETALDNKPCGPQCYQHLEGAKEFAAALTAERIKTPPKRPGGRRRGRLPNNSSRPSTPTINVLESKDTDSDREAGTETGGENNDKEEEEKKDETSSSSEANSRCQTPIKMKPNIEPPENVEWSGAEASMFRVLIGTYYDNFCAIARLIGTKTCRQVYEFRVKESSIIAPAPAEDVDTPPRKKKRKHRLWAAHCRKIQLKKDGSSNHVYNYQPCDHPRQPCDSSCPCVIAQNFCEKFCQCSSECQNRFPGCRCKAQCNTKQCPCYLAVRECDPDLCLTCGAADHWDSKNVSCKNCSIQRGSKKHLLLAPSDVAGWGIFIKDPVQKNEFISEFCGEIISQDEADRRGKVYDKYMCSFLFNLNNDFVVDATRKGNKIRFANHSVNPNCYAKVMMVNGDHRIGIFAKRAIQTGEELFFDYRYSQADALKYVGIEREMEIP
Sequence of recombinant EZH2-641F complex (EZH2 Y641F/EED/SUZ12/RbAp48/AEBP2) (O75530 whole entry partner): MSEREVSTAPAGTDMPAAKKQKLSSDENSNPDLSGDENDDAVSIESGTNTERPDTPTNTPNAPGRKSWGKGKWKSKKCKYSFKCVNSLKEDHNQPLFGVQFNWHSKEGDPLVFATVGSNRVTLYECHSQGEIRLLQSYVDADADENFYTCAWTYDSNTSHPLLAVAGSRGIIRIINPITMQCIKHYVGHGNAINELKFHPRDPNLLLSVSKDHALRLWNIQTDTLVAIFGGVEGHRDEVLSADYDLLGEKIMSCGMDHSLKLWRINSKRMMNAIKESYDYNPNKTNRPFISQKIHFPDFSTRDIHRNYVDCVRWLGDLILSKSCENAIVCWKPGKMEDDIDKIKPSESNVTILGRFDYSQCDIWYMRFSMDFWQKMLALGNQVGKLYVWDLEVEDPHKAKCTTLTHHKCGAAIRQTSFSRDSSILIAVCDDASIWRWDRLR
Sequence of recombinant EZH2-641F complex (EZH2 Y641F/EED/SUZ12/RbAp48/AEBP2) (Q15022 whole entry partner): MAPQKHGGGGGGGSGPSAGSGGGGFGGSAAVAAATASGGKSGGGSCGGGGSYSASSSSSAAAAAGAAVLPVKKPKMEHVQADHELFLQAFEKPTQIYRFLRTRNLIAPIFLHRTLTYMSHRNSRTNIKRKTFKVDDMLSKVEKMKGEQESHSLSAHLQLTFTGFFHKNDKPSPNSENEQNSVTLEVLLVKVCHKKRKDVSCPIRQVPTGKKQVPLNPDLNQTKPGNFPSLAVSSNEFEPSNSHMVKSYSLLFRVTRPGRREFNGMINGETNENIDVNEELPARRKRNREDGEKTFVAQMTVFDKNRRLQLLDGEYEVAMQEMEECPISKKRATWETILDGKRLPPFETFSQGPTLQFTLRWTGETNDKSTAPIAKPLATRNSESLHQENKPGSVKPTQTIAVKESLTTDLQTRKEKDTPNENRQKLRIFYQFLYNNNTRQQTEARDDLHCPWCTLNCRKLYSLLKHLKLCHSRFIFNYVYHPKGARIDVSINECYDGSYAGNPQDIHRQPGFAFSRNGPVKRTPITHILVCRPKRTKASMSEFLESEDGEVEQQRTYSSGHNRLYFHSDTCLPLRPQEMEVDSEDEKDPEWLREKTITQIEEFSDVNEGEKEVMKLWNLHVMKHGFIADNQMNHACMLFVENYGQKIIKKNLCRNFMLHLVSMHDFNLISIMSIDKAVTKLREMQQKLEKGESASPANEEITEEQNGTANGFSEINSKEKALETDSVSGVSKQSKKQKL
Sequence of recombinant EZH2-641F complex (EZH2 Y641F/EED/SUZ12/RbAp48/AEBP2) (Q09028 whole entry partner): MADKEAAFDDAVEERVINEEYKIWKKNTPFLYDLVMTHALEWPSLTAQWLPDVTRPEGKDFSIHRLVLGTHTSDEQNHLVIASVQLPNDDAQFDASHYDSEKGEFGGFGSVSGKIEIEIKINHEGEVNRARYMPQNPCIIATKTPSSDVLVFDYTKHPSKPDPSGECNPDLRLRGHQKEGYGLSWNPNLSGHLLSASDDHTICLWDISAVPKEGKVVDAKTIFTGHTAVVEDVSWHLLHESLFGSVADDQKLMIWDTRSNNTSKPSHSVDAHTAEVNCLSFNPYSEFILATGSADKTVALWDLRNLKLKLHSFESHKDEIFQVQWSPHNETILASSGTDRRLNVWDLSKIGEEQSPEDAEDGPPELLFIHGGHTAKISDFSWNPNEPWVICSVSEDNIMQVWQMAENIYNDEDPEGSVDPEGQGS
Sequence of recombinant EZH2-641F complex (EZH2 Y641F/EED/SUZ12/RbAp48/AEBP2) (Q6ZN18 whole entry partner): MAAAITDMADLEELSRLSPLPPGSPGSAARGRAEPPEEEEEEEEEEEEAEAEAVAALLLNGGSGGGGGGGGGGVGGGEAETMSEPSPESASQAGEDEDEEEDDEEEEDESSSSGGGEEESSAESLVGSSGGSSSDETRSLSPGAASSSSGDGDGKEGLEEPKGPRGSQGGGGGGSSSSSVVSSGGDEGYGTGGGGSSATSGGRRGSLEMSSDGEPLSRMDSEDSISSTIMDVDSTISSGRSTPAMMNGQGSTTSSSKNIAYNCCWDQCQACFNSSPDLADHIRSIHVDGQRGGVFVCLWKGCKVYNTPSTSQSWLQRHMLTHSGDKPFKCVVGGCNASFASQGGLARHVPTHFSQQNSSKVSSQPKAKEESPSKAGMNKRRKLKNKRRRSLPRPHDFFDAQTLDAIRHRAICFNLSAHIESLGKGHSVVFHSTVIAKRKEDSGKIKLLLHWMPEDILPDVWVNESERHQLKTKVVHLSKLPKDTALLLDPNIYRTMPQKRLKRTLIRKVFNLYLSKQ

The experiment addresses recombinant EZH2-641F complex (EZH2 Y641F/EED/SUZ12/RbAp48/AEBP2) (Homo sapiens (Human), UniProt Q15910, Y641F). Put plainly: EZH2 Histone Methyl Transferase Assay (scintillation proximity assay). The class given is biochemical. The settings on record: 350 nM histone peptide substrate, 500 nM 3H-SAM, 3 hours room temperature. As to the method:
EZH2 Histone Methyl Transferase Assay
The effectiveness of compounds of the present invention as inhibitors of histone methyl transferases can be readily tested by assays known to those skilled in the art. For example, in vitro histone methyl transferase assays may be conducted with a relevant purified histone methyl transferase and an appropriate synthetic substrate to determine the inhibitory activity of the compounds. Assays for inhibition of EZH2 by the instant compounds were performed in 384-well plates with reaction mixtures containing 350 nM of histone peptide substrate (ATKAAR-K(Me2)-SAPATGGVKKPHRYRPG-GK(Biotin), 500 nM S-[methyl-^3H]adenosyl-L-methionine (55-85 Ci/mmol), 50 mM Tris-HCl (pH 9.0), 50 mM NaCl, 1 mM dithiothreitol, Tween-20 at 0.01% and fatty-acid free bovine serum albumin at 0.01%, and recombinant EZH2-641F complex (EZH2 Y641F/EED/SUZ12/RbAp48/AEBP2) at 5 nM (>98% purity, BPS Bioscience) or 15 nM (50% purity, in-house). Reaction mixtures were incubated at room temperature for 3 hours, and the reactions were terminated by 0.005% poly-L-lysine solution in 20 mM Tris-HCl (pH 7.5) and 150 mM NaCl. Reaction products were captured by binding to strepavidin-conjugated imaging beads. Incorporation of radioactive methyl group into the histone peptide substrate was determined in Leadseeker (GE Healthcare) by means of scintillation proximity assay. Dose response curves were generated to determine the concentration required to inhibit 50% of methyl transferase activity (EC50). Compounds were dissolved at 10 mM in dimethylsulfoxide (DMSO) and evaluated at eleven concentrations. EC50 values were derived by non-linear regression analysis.
(In a scintillation proximity assay essentially only radioactivity close to the scintillant gives light.)
As to `COc1ccc(-c2cc(C(=O)NCc3c(C)cc(C)[nH]c3=O)cc3c2OCC3C)cn1` (centres unmarked) [Example 30, N-((4,6-Dimethyl-2-oxo-1,2-dihydropyridin-3-yl)methyl)-7-(6-methoxypyridin-3-yl)-3-methyl-2,3-dihydrobenzofuran-5-carboxamide], the IC50 (commonly the midpoint of a concentration-inhibition curve) is > 1000 nM.

With `Cc1cc(C)c(CNC(=O)c2cc3c(c(-c4ccc(N5CCNCC5)nc4)c2)OCC3)c(=O)[nH]1` [Example 38, N-((4,6-Dimethyl-2-oxo-1,2-dihydropyridin-3-yl)methyl)-7-(6-(piperazin-1-yl)pyridin-3-yl)-2,3-dihydrobenzofuran-5-carboxamide], the half-inhibitory concentration (IC50) was > 1000 nM. Under `Cc1cc(C)c(CNC(=O)c2cc(Br)c3c(c2)CCCC(C)O3)c(=O)[nH]1` (centres unmarked) [Example 49, 9-Bromo-N-((4,6-dimethyl-2-oxo-1,2-dihydropyridin-3-yl)methyl)-2-methyl-2,3,4,5-tetrahydrobenzo[b]oxepine-7-carboxamide] stands > 1000 nM; under `Cc1cc(C)c(CNC(=O)c2cc(Cc3ccccc3)c3c(c2)CC(C)(C)O3)c(=O)[nH]1` [Example 21, 7-Benzyl-N-((4,6-dimethyl-2-oxo-1,2-dihydropyridin-3-yl)methyl)-2,2-dimethyl-2,3-dihydrobenzofuran-5-carboxamide], > 1000 nM; under `CCCc1cc(C)[nH]c(=O)c1CNC(=O)c1cc(Cl)c2c(c1)CC(C)(C)O2` [Example 23, 7-Chloro-2,2-dimethyl-N-((6-methyl-2-oxo-4-propyl-1,2-dihydropyridin-3-yl)methyl)-2,3-dihydrobenzofuran-5-carboxamide], > 1000 nM. Regarding `Cc1cc(C)c(CNC(=O)c2ccc3c(c2)CCCC(C)O3)c(=O)[nH]1` (centres unmarked) [Example 48, N-((4,6-Dimethyl-2-oxo-1,2-dihydropyridin-3-yl)methyl)-2-methyl-2,3,4,5-tetrahydrobenzo[b]oxepine-7-carboxamide], the IC50 was > 1000 nM. For `COc1ccc(-c2cc(C(=O)NCc3c(C)cc(C)[nH]c3=O)c(C)c3c2OC(C)(C)C3)cn1` [Example 25, N-((4,6-Dimethyl-2-oxo-1,2-dihydropyridin-3-yl)methyl)-7-(6-methoxypyridin-3-yl)-2,2,4-trimethyl-2,3-dihydrobenzofuran-5-carboxamide] the value was 500 to 1000 nM; for `CCCc1cc(C)[nH]c(=O)c1CNC(=O)c1cc(Br)c2c(c1)CC(C)(C)O2` [Example 24, 7-Bromo-2,2-dimethyl-N-((6-methyl-2-oxo-4-propyl-1,2-dihydropyridin-3-yl)methyl)-2,3-dihydrobenzofuran-5-carboxamide], > 1000 nM. For `COc1ccc(-c2cc(C(=O)NCc3c(C)cc(C)[nH]c3=O)cc3c2OC(C)C3)cn1` (centres unmarked) [Example 32, N-((4,6-Dimethyl-2-oxo-1,2-dihydropyridin-3-yl)methyl)-7-(6-methoxypyridin-3-yl)-2-methyl-2,3-dihydrobenzofuran-5-carboxamide] the value was > 1000 nM; for `Cc1cc(C)c(CNC(=O)c2cc3c(c(-c4ccc(N5CCNCC5)nc4)c2)OC(C(C)C)C3)c(=O)[nH]1` (centres unmarked) [Example 80, N-((4,6-Dimethyl-2-oxo-1,2-dihydropyridin-3-yl)methyl)-2-isopropyl-7-(6-(piperazin-1-yl)pyridin-3-yl)-2,3-dihydrobenzofuran-5-carboxamide], > 1000 nM. Under `COc1ccc(-c2cc(C(=O)NCc3c(C)cc(C)[nH]c3=O)cc3c2OC(C)(C)CC3)cn1` [Example 43, N-((4,6-Dimethyl-2-oxo-1,2-dihydropyridin-3-yl)methyl)-8-(6-methoxypyridin-3-yl)-2,2-dimethylchroman-6-carboxamide] stands > 1000 nM; under `Cc1cc(C)c(CNC(=O)c2cc(-c3ccc(CN4CCCCC4)cc3)c3c(c2)C2(CCCC2)CO3)c(=O)[nH]1` [Example 78, N-((4,6-Dimethyl-2-oxo-1,2-dihydropyridin-3-yl)methyl)-7-(4-(piperidin-1-ylmethyl)phenyl)-2H-spiro[benzofuran-3,1′-cyclopentane]-5-carboxamide], > 1000 nM.

As to `CC1=C(C)Cc2cc(C(=O)NCc3c(C)cc(C)[nH]c3=O)cc(Br)c2OC1` [Example 81, 9-Bromo-N-((4,6-dimethyl-2-oxo-1,2-dihydropyridin-3-yl)methyl)-3,4-dimethyl-2,5-dihydrobenzo[b]oxepine-7-carboxamide], the IC50 is > 1000 nM.

Consider `Cc1cc(C)c(CNC(=O)c2cc3c(c(-c4ccc(N5CCNCC5)nc4)c2)OC2(CCCC2)C3)c(=O)[nH]1` [Example 72, N-((4,6-Dimethyl-2-oxo-1,2-dihydropyridin-3-yl)methyl)-7-(6-(piperazin-1-yl)pyridin-3-yl)-3H-spiro[benzofuran-2,1′-cyclopentane]-5-carboxamide], for which the IC50 is < 500 nM.

As to `Cc1cc(C)c(CNC(=O)c2ccc3c(c2C)CC(C)(C)O3)c(=O)[nH]1` [Example 8, N-((4,6-Dimethyl-2-oxo-1,2-dihydropyridin-3-yl)methyl)-2,2,4-trimethyl-2,3-dihydrobenzofuran-5-carboxamide], the IC50 is > 1000 nM. For `Cc1cc(C)c(CNC(=O)c2cc3c(c(-c4cnc(N5CCN(C(=O)OC(C)(C)C)CC5)nc4)c2)OC(C)(C)C3)c(=O)[nH]1` [Example 17, t-Butyl 4-(5-(5-(((4,6-dimethyl-2-oxo-1,2-dihydropyridin-3-yl)methyl)carbamoyl)-2,2-dimethyl-2,3-dihydrobenzofuran-7-yl)pyrimidin-2-yl)piperazine-1-carboxylate] the value was < 500 nM; for `Cc1cc(C)c(CNC(=O)c2cc(-c3ccc(N4CCNCC4)nc3)c3c(c2)C2(CCCC2)CO3)c(=O)[nH]1` [Example 77, N-((4,6-Dimethyl-2-oxo-1,2-dihydropyridin-3-yl)methyl)-7-(6-(piperazin-1-yl)pyridin-3-yl)-2H-spiro[benzofuran-3,1′-cyclopentane]-5-carboxamide], > 1000 nM; for `Cc1cc(C)c(CNC(=O)c2cc(-c3ccc(N4CCNCC4)cc3)c3c(c2)[C@@H]2CCC[C@]2(C)O3)c(=O)[nH]1` (racemic) [Example 68, rac-(3aS,8bS)—N-((4,6-Dimethyl-2-oxo-1,2-dihydropyridin-3-yl)methyl)-3a-methyl-5-(4-(piperazin-1-yl)phenyl)-2,3,3a,8b-tetrahydro-1H-cyclopenta[b]benzofuran-7-carboxamide], 500 to 1000 nM.

Turning to `C=CC1(C)Cc2cc(C(=O)NCc3c(C)cc(C)[nH]c3=O)cc(-c3ccc(N4CCNCC4)nc3)c2O1` (centres unmarked) [Example 59, N-((4,6-Dimethyl-2-oxo-1,2-dihydropyridin-3-yl)methyl)-2-methyl-7-(6-(piperazin-1-yl)pyridin-3-yl)-2-vinyl-2,3-dihydrobenzofuran-5-carboxamide], the IC50 was < 500 nM. Under `Cc1cc(C)c(CNC(=O)c2ccc3c(c2)CC(C)(C)O3)c(=O)[nH]1` [Example 2, N-((4,6-Dimethyl-2-oxo-1,2-dihydropyridin-3-yl)methyl)-2,2-dimethyl-2,3-dihydrobenzofuran-5-carboxamide] stands > 1000 nM; under `CCCc1cc(C)[nH]c(=O)c1CNC(=O)c1cc(Br)c2c(c1)CC(C)=C(C)CO2` [Example 86, 9-Bromo-3,4-dimethyl-N-((6-methyl-2-oxo-4-propyl-1,2-dihydropyridin-3-yl)methyl)-2,5-dihydrobenzo[b]oxepine-7-carboxamide], > 1000 nM; under `C=CC1(C)Cc2cc(C(=O)NCc3c(C)cc(C)[nH]c3=O)cc(-c3ccc(OC)nc3)c2O1` (centres unmarked) [Example 56, N-((4,6-Dimethyl-2-oxo-1,2-dihydropyridin-3-yl)methyl)-7-(6-methoxypyridin-3-yl)-2-methyl-2-vinyl-2,3-dihydrobenzofuran-5-carboxamide], > 1000 nM. For `Cc1cc(C)c(CNC(=O)c2cc3c(c(-c4ccc(CN5CCCCC5)cc4)c2)OC(C)(C)C3)c(=O)[nH]1` [Example 19, N-((4,6-Dimethyl-2-oxo-1,2-dihydropyridin-3-yl)methyl)-2,2-dimethyl-7-(4-(piperidin-1-ylmethyl)phenyl)-2,3-dihydrobenzofuran-5-carboxamide] the value was > 1000 nM; for `Cc1cc(C)c(CNC(=O)c2cc3c(c(-c4cnc5ccccc5c4)c2)OC(C)(C)C3)c(=O)[nH]1` [Example 13, N-((4,6-Dimethyl-2-oxo-1,2-dihydropyridin-3-yl)methyl)-2,2-dimethyl-7-(quinolin-3-yl)-2,3-dihydrobenzofuran-5-carboxamide], > 1000 nM. Under `Cc1cc(C)c(CNC(=O)c2cc(C)c3c(c2C)CC(C)(C)O3)c(=O)[nH]1` [Example 9, N-((4,6-Dimethyl-2-oxo-1,2-dihydropyridin-3-yl)methyl)-2,2,4,7-tetramethyl-2,3-dihydrobenzofuran-5-carboxamide] stands > 1000 nM; under `C=CC1COc2cc(C(=O)NCc3c(C)cc(C)[nH]c3=O)cc(Br)c2O1` (centres unmarked) [Example 90, 8-Bromo-N-((4,6-dimethyl-2-oxo-1,2-dihydropyridin-3-yl)methyl)-2-vinyl-2,3-dihydrobenzo[b][1,4]dioxine-6-carboxamide], > 1000 nM.
